Measurements as given in US20220088011A1, “THERAPEUTIC AGENT FOR A TUMOR COMPRISING AN IDO INHIBITOR ADMINISTERED IN COMBINATION WITH AN ANTIBODY” (KYOWA KIRIN CO., LTD., priority 2015, published 2022).

B1: mogamulizumab: humanized anti CCR4 monoclonal antibody (antibody, chains of the INN, looked up, V domains shown)
VH: EVQLVESGGDLVQPGRSLRLSCAASGFIFSNYGMSWVRQAPGKGLEWVATISSASTYSYYPDSVKGRFTISRDNAKNSLYLQMNSLRVEDTALYYCGRHSDGNFAFGYWGQGTLVTVSS
VL: DVLMTQSPLSLPVTPGEPASISCRSSRNIVHINGDTYLEWYLQKPGQSPQLLIYKVSNRFSGVPDRFSGSGSGTDFTLKISRVEAEDVGVYYCFQGSLLPWTFGQGTKVEIK

Columns and labels:
TL-Om1 cells [1] = assay: ADCC of mogamulizumab against TL-Om1 cells by purified human NK cells pre-incubated in conditioned medium; type: cell-based
Protocol: (§1) KATO-III cells (1.25×10^6 cells) were treated with 25 ng/mL recombinant human IFN-γ. […] Three days later, cells and supernatants were separated by centrifugation. The supernatants were used as conditioned medium. The conditioned medium was used for incubation of human PBMCs or NK cells (section 2.4.2), and measurement of Kyn and Trp (section 2.4.4).
(§2) NK cells were isolated from human PBMCs using NK isolation kit (Miltenyi Biotec, Cat. No. 130-092-657) and autoMACS instrument. Human PBMCs or NK cells were cultured in the conditioned medium (section 2.4.1) in a CO2 incubator. After 7 days, cells were harvested and counted, and used as effector cells. […] The radioactivity was counted with a microplate scintillation counter (TopCount NXT, PerkinElmer).
(§3) The percentage of cytotoxicity was calculated according to the following formula: […]
(§4) E is the experimental released radioactivity (cpm), S is the mean of spontaneous released radioactivity (cpm) by adding the assay medium instead of effector cells and antibody, and M is the mean of maximum released radioactivity (cpm) by adding 10 vol % Triton™ X-100 (Sigma-Aldrich, Cat. No. T9284-100ML) instead of effector cells and antibody. […]

TL-Om1 cells [2] = assay: ADCC of mogamulizumab against TL-Om1 cells by human PBMCs pre-incubated in conditioned medium; type: cell-based
Protocol: as §1, §2, §3, §4

TL-Om1 cells [3] = assay: ADCC of mogamulizumab against TL-Om1 cells by human PBMCs pre-incubated in medium containing the compound itself; type: cell-based; conditions: human PBMCs pre-incubated in medium containing 100 nmol/L compound for 7 days
Protocol: NK cells were isolated from human PBMCs using NK isolation kit (Miltenyi Biotec, Cat. No. 130-092-657) and autoMACS instrument. Human PBMCs or NK cells were cultured in the conditioned medium (section 2.4.1) in a CO2 incubator. After 7 days, cells were harvested and counted, and used as effector cells. PBMCs and NK cells used as effector cells were suspended in the assay medium (RPMI1640 containing 10 vol % heat-inactivated fetal bovine serum and 1 vol % Penicillin-Streptomycin) to 5×10^6 cells/mL (PBMCs) or 4×10^5 cells/mL (NK cells). TL-Om1 cells, HH cells, SK-BR-3 cells, Raji cells or A431 cells (1×10^6 cells/each cell line) were labeled with 1.85 MBq of Na2^51CrO4 (PerkinElmer) for over 1 hour at 37° C. in a CO2 incubator. The cells were washed 3 times with assay medium. The radiolabeled cells used as target cells were suspended in 5 mL of the assay medium to 2×10^5 cells/mL. […] Fifty μL of the target cells (1×10^4 cells) were plated into 96-well round bottomed culture plates and mixed with 50 μL of antibody dilutions prepared as described above and 50 μL of the effector cells (2.5×10^5 cells). The culture plates were briefly centrifuged at 4° C. and incubated at 37° C. in a CO2 incubator for about 4 hours. […] The radioactivity was counted with a microplate scintillation counter (TopCount NXT, PerkinElmer).

HH cells = assay: ADCC of mogamulizumab against HH cells by human PBMCs pre-incubated in conditioned medium; type: cell-based
Protocol: as §1, §2, §3, §4

Raji cells = assay: ADCC of rituximab against Raji cells by human PBMCs pre-incubated in conditioned medium; type: cell-based; conditions: human PBMCs pre-incubated 7 days in conditioned medium of KATO-III + IFN-γ + 100 nmol/L compound
Protocol: as §1
(§5) NK cells were isolated from human PBMCs using NK isolation kit (Miltenyi Biotec, Cat. No. 130-092-657) and autoMACS instrument. Human PBMCs or NK cells were cultured in the conditioned medium (section 2.4.1) in a CO2 incubator. After 7 days, cells were harvested and counted, and used as effector cells. PBMCs and NK cells used as effector cells were suspended in the assay medium (RPMI1640 containing 10 vol % heat-inactivated fetal bovine serum and 1 vol % Penicillin-Streptomycin) to 5×10^6 cells/mL (PBMCs) or 4×10^5 cells/mL (NK cells). TL-Om1 cells, HH cells, SK-BR-3 cells, Raji cells or A431 cells (1×10^6 cells/each cell line) were labeled with 1.85 MBq of Na2^51CrO4 (PerkinElmer) for over 1 hour at 37° C. in a CO2 incubator. The cells were washed 3 times with assay medium. The radiolabeled cells used as target cells were suspended in 5 mL of the assay medium to 2×10^5 cells/mL. […]

A431 cells = assay: ADCC of cetuximab against A431 cells by human PBMCs pre-incubated in conditioned medium; type: cell-based; conditions: human PBMCs pre-incubated 7 days in conditioned medium of KATO-III + IFN-γ + 100 nmol/L compound
Protocol: as §1, §5

SKOV3 cells = assay: Cytotoxicity of PBMCs against SKOV3 cells with or without Antibody C1 (51Cr release); type: cell-based, human; conditions: PBMCs pre-incubated 7 days in conditioned medium of SKOV3 + 50 ng/mL IFNγ + 100 nmol/L compound, vs conditioned medium DMSO
Protocol: The supernatants of each culture were used as the conditioned medium for pre-incubation of PBMCs.
SKOV3 cells were detached from culture flasks by TrypLE Express (GIBCO). The live cells were adjusted to 1.0×10^6 cells by the ADCC assay medium [RPMI1640 without phenol red (GIBCO) with 10 vol % of dialyzed and heat-inactivated FCS(GIBCO)]. Then, the cells were labeled with approx. 3.7 MBq of Na2^51CrO4 (PerkinElmer) for over 1 hour at 37° C. in a CO2 incubator. The cells were washed three times, and adjusted to 2.0×10^5 cells/mL (1×10^4 cells/50 μL) as the target cells using the ADCC assay medium.
Human PBMCs were cultured in 25 mL of the conditioned medium for 7 days. […]
The cytotoxicity was quantified by measurement of radioactivity in the supernatant of each assay well. […]
Total, T spo, M, or Assay sample was defined and prepared as follows. • Total: Target cell total radioactivity control. This sample was prepared by mixing 50 μL of target cell, 15 μL of detergent (10×Lysis Solution, Promega), and 85 μL of the ADCC assay medium. • T spo: Target cell spontaneous radioactivity control. […]
Each sample was prepared in triplicate. […] The radioactivity (cpm) was counted with a microplate scintillation counter (TopCount NXT, PerkinElmer).
The cytotoxicity (%) was calculated by the following equations using the cpm of each well. […]

SK-BR-3 cells = assay: ADCC of trastuzumab against SK-BR-3 cells by human PBMCs pre-incubated in conditioned medium; type: cell-based; conditions: human PBMCs pre-incubated 7 days in conditioned medium of KATO-III + IFN-γ + 100 nmol/L compound
Protocol: as §1, §5

TL-Om1 cells [4] = assay: ADCC of mogamulizumab against TL-Om1 cells by human PBMCs pre-incubated in conditioned medium of shRNA KATO-III cells; type: cell-based; conditions: PBMCs pre-incubated in conditioned medium 3 (parent + IFN-γ) or 4 (NegaCTRL shRNA + IFN-γ) compared with conditioned medium 1 or 2
Protocol: Parental KATO-III or KATO-III cells stably expressing IDO1 shRNA or NegaCTRL shRNA (1.25×10^6 cells) were treated with 25 ng/mL recombinant human IFN-γ. Cells were incubated in a CO2 incubator. Three days later, cells and supernatants were separated by centrifugation. The supernatants were used as conditioned medium. The conditioned medium was used for incubation of human PBMCs (Section 7.4.5), and measurement of Kyn and Trp (Section 7.4.7).
Human PBMCs were cultured in each conditioned medium (Section 7.4.4) in a CO2 incubator. After 7 days, cells were harvested and counted, and used as effector cells. PBMCs used as effector cells were suspended in the assay medium (RPMI1640 containing 10 vol % heat-inactivated fetal bovine serum and 1 vol % Penicillin-Streptomycin) to 5×10^6 cells/mL. […] The radioactivity was counted with a microplate scintillation counter (TopCount NXT, PerkinElmer).
as §3, §4

Molecule | effect on the attenuation of ADCC of mogamulizumab by NK cells (TL-Om1 cells [1]; purified human NK cells pre-incubated in conditioned medium of KATO-III + IFN-γ + 100 nmol/L compound, TL-Om1 target cells) | effect on the attenuation of ADCC of mogamulizumab against TL-Om1 cells (TL-Om1 cells [2]; human PBMCs (donor 1, donor 2) pre-incubated 7 days in conditioned medium of KATO-III + IFN-γ + 100 nmol/L compound) | effect of the compound itself on ADCC of mogamulizumab (TL-Om1 cells [3]) | effect on the attenuation of ADCC of mogamulizumab against HH cells (HH cells; human PBMCs pre-incubated 7 days in conditioned medium of KATO-III + IFN-γ + 100 nmol/L compound) | effect on the attenuation of ADCC of rituximab against Raji cells (Raji cells) | effect on the attenuation of ADCC of cetuximab against A431 cells (A431 cells) | cytotoxicity without Antibody C1 (natural killing activity) of PBMCs against SKOV3 cells (SKOV3 cells) | cytotoxicity of PBMCs against SKOV3 cells in the presence of Antibody C1 (SKOV3 cells; Antibody C1 0.033-333 ng/mL) | effect on the attenuation of ADCC of trastuzumab against SK-BR-3 cells (SK-BR-3 cells) | ADCC against TL-Om1 cells (TL-Om1 cells [4]) | ADCC by NK cells against TL-Om1 cells (TL-Om1 cells [1]; purified NK cells pre-incubated in conditioned medium 2 (KATO-III + IFN-γ)) | ADCC against TL-Om1 cells (TL-Om1 cells [2]; PBMCs (donor 1, donor 2) pre-incubated in conditioned medium 2 (KATO-III + IFN-γ) compared with conditioned medium 1) | ADCC against HH cells (HH cells; PBMCs pre-incubated in conditioned medium 2 (KATO-III + IFN-γ))
NS(=O)(=O)NCCNc1nonc1C(=NO)Nc1ccc(F)c(Br)c1 [Compound B1, 4-({2-[(aminosulfonyl)amino]ethyl}amino)-N-(3-bromo-4-fluorophenyl)-N′-hydroxy-1,2,5-oxadiazole-3-carboximidamide] | canceled | canceled the attenuation | did not influence | canceled the attenuation | canceled the attenuation | canceled the attenuation | higher | higher | canceled the attenuation |  |  |  | 
B1 |  |  |  |  |  |  |  |  |  | attenuated | attenuated | attenuated | attenuated
